Test results from patent publication US20120226031A1, “PALMARUMYCIN BASED INHIBITORS OF THIOREDOXIN AND METHODS OF USING SAME” (ARIZONA BOARD OF REGENTS, ACTING ON BEHALF OF THE …, priority 2005, published 2012).
Where two headings read alike, the source gives them in different places. Blank lines part the entries; values can stand above or below the compound they belong to.

What was measured:
[1] = target: T1, human thioredoxin reductase (Homo sapiens, UniProt Q16881); experiment: Inhibition of purified human thioredoxin reductase (TrxR/TR); type: biochemical
T1 construct: (placenta); from tissue; host or cells: human placenta
T1 sequence (Q16881 151-649 limits assumed): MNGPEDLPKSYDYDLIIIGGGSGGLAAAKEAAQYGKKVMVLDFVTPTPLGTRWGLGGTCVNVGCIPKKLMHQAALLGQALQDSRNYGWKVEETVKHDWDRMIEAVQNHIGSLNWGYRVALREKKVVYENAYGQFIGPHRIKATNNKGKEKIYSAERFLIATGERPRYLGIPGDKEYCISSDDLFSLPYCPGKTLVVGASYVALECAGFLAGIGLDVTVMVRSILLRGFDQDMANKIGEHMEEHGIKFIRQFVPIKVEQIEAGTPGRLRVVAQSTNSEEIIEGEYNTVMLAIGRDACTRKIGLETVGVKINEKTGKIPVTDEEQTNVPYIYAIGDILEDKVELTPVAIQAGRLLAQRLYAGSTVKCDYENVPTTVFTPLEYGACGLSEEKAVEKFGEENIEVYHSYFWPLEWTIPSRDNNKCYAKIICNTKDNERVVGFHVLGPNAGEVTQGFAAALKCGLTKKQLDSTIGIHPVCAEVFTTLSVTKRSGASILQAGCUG

[2] = tested on: MCF-7 human breast cancer cells; experiment: MCF-7 breast cancer cell growth inhibition; type: cell-based
Experimental: MCF-7 human breast cancer cells were grown in medium containing 1 μM selenium (Se) for 7 days which increased cellular thioredoxin reductase activity by about 5 fold as previously reported.

Aqueous solubility = type: physicochemical
[3] = Stability in fresh mouse plasma at room temperature; type: in vitro ADME
Experimental: (§1) Two metabolite peaks could be seen at 5 minutes, but were undetectable by 30 minutes.

[4] = Plasma levels in mice after i.v. administration; type: in vivo, mouse; set-up: dose or concentration left out as unconfirmed; details: after PX-916 i.v. to mice
Experimental: as §1

[5] = pH dependent stability in water / 0.1M sodium phosphate buffer; type: physicochemical; details: for half-life at 100 g/ml / T1/2: 100 g/ml in 0.1M sodium phosphate buffer
Experimental: PX-916 was stable as a stock solution in ethanol at room temperature with a half life of >5 days. […] Therefore, for in vitro studies PX-916 was used as a stock solution in ethanol, and for in vivo studies made fresh in pH 4.0 buffer vehicle.
Further palmarumycin analogs were synthesized and tested. The following analogs were synthesized: eee269-II, eee86-III, eee263-II and eee273-II. The stability of the analogs was measured in various solutions.

[6] = Stability of prodrugs in mouse plasma (formation of parent compound); type: in vitro ADME; details: first 20 min of incubation at 1 mg/ml and 33° C.
Experimental: (§2) The stability of the analogs and formation of the parent compound in plasma was measured and is presented in FIG. 7, FIG. 8 and Table 6 (measured by the formation of parent compound over the first 20 min of incubation at 1 mg/ml and at 33° C.), below.

[7] = Stability of prodrugs in ES1e mouse plasma (formation of parent compound); type: in vitro ADME; details: first 20 min of incubation at 1 mg/ml and 33° C.
Experimental: as §2

[8] = Stability of prodrugs in human plasma (formation of parent compound); type: in vitro ADME; details: first 20 min of incubation at 1 mg/ml and 33° C.
Experimental: as §2

[9] = Table 1, read-out: TrxR inhibitory activity IC50
[10] = Homo sapiens, MCF7, Table 1, read-out: MCF-7 growth inhibition IC50
[11] = Table 2, read-out: Inhibition of human thioredoxin reductase IC50

Compound: CC(C)C(N)C(=O)Oc1ccc2c3c(cccc13)OC1(C=CC(=O)c3ccccc31)O2 (stereo not shown) [Compound 11]
- IC50 [1, 9]: 620 nM
- IC50 [2, 10]: 2200 nM

Compound: O=C1C=CC2(Oc3cccc4c(OCCN5CCOCC5)ccc(c34)O2)c2ccccc21 (stereo not shown) [Compound 13]
- IC50 [1, 9]: 1600 nM
- IC50 [2, 10]: 1200 nM

Compound: O=C1C=CC2(Oc3cccc4c(OCCN5CCOCC5)ccc(c34)O2)c2cccc(O)c21 (stereo not shown) [Compound 14]
- IC50 [1, 9]: 4200 nM
- IC50 [2, 10]: 2600 nM

Compound: O=C1C=CC2(Oc3cccc4c(OC5OC(CO)C(O)C(O)C5O)ccc(c34)O2)c2cccc(O)c21 (stereo not shown) [eee86-III]
- half-life at 100 g/ml ([5]; pH 4.0): > 100 h
- half-life at 100 g/ml ([5]; pH 7.0): > 100 h

Compound: CC(C)(N)C(=O)Oc1ccc2c3c(cccc13)OC1(C=CC(=O)c3c(O)cccc31)O2 (stereo not shown) [eee263-II]
- T1/2 ([5]; pH 4.0): >100 h
- T1/2 ([5]; pH 7.0): >100 h
- formation of parent compound, Mouse Plasma [6]: 42 area/20 min
- formation of parent compound, ES1e mouse plasma [7]: 82 area/20 min
- formation of parent compound, Human plasma [8]: 81 area/20 min

Compound: CC(C)(NNC1CC(=O)c2c(O)cccc2C12Oc1cccc3c(O)ccc(c13)O2)C(N)=O (stereo not shown) [eee269-II]
- half-life at 100 g/ml ([5]; pH 4.0): > 100 h
- half-life at 100 g/ml ([5]; pH 7.0): 0.2 h
- stability in aqueous solutions ([5]; in words): unstable in aqueous solutions

Compound: NC(Cc1ccccc1)C(=O)Oc1ccc2c3c(cccc13)OC1(C=CC(=O)c3c(O)cccc31)O2 (stereo not shown) [eee273-II]
- solubility at 1 mg/ml (Aqueous solubility; 1 mg/ml, plasma stability study): very insoluble
- half-life at 100 g/ml ([5]; pH 4.0): > 100 h
- half-life at 100 g/ml ([5]; pH 7.0): > 100 h

Other lines, results leading:

- IC50 [1, 11]: 3200 nM
- IC50 ([2]; Homo sapiens, MCF7, Table 2, read-out: Inhibition of MCF-7 breast cancer cell growth IC50): 9200 nM
Compound: COc1ccc2c3c(cccc13)OC1(C=CC(=O)c3ccccc31)O2 (stereo not shown) [PX-911]

- IC50 [1, 9]: 200 nM
- IC50 [1, 11]: 270 nM
- IC50 ([2]; Homo sapiens, MCF7, read-out: Inhibition of MCF-7 breast cancer cell growth IC50): 4100 nM
- IC50 [2, 10]: 2600 nM
- solubility (Aqueous solubility; water, read-out: water solubility): < 100 µg/mL
- half life in mouse plasma [3]: about 31 minutes
- half-life [3]: ~0.517 h
- detection of PX-960 in plasma ([4]; at 5 minutes): only a very small peak
- detection of PX-960 in plasma ([4]; at 30 minutes): No PX-960 was detected
Compound: O=C1C=CC2(Oc3cccc4c(O)ccc(c34)O2)c2cccc(O)c21 (stereo not shown) [PX-960]

- IC50 [1, 11]: 350 nM
- IC50 ([2]; Table 2, read-out: Inhibition of MCF-7 breast cancer cell growth IC50): 1000 nM
- IC50 ([2]; text b151, summary of Table 2, read-out: concentration of cell growth inhibition of MCF-7 cells): 1000 to 3000 nM
- solubility in aqueous media (Aqueous solubility; in words): almost insoluble in aqueous media
Compound: O=C1C=CC2(Oc3cccc4cccc(c34)O2)c2cccc(O)c21 [palmarumycin C1, palmarumycin CP1, reference compound]
